Results published in patent US20060141546A1, “Bacterial test method by glycated label binding” (priority 2002, published 2006).

How the values were obtained:
[1] = buffers for ALP determinations; cited from earlier work
bacteria [2] = assay: Effect of divalent cations on ALP binding to bacteria (Example 7, Table 5, FIG. 12); conditions: for O.D. at 405 nm, With ALP: bacteria plus cation (CaCl2 1 mM, MgCl2 1 mM, ZnCl2 0.2 mM) with ALP; for O.D. at 405 nm, No ALP: bacteria plus cation (CaCl2 1 mM, MgCl2 1 mM, ZnCl2 0.2 mM)
Experimental: (§1) Bacterial cells (1 to 4.5×10^7 cells/mL) were washed twice with water after centrifugation to separate cells into a packed pellet from the supernatant liquid. The washed cells in pellet form were suspended in 20 μL of EPPS buffer (50 mM at pH 8.0) and 30 μL of water. […]
(§2) The mixture of glycated protein and bacterial cells was left at 25° C. for 15 minutes. The mixture was then centrifuged at 30,000 rpm for 30 minutes after which the bacterial cells formed a pellet at the bottom of the tube and were washed with water 4-5 times (50 μL). Centrifugation allows separation of glycoprotein bound to the bacteria cells from unbound glycated protein(s).
(§3) After washing, the bacterial pellets were suspended in 50 μL of borate buffer (25 mM at pH 9.0). A 5 μL aliquot of the suspension was assayed for detection of ALP binding by adding 5 μL of para-nitrophenol phosphate (PNPP, 100 mM), 50 μL sodium borate buffer (25 mM at pH 9.0) and 140 μL of water. […] The color was read at 405 nm using an ELISA plate reader between 15-30 min; the absorbance is directly proportional to the amount of ALP bound to the bacteria cell.

[3] = system: bacteria (Sf—Staph. faec.; Ec: E. coli); assay: Effect of various cations on ALP binding to bacteria (Example 8, FIGS. 13-14); conditions: FIG. 13; for effect of various cations on ALP-binding (in words): cations 2 mM, bovine intestinal mucosa ALP
Experimental: as §1
as §2, with “was” for “were”
as §3

E. coli [4] = assay: ALP binding to bacteria in presence of carbohydrates, polysaccharides, glycopeptides and lectins (Example 5, Table 3); conditions: ALP 100 mUnits plus 15 μg of additive
Experimental: (§4) Bacterial cells (1 to 4.5×10^7 cells/mL) were washed twice with water after centrifugation to separate cells into a packed pellet from the supernatant liquid. The washed cells in pellet form were suspended in 20 μl of EPPS buffer (50 mM at pH 8.0) and 30 μL of water. Hemoglobin (20 μg) was added as a blocking additive. Alkaline phosphatase (ALP) (100 mUnits) from bovine intestine and 15 μg of simple carbohydrates or proteoglycan or lectins, were added.
as §2
(§5) After washing, the bacterial pellets were suspended in 50 μL of sodium tetraborate buffer (25 mM at pH 9.5). A 5 uL aliquot of the suspension was assayed for detection of ALP binding by adding 5 μL of para-nitrophenol phosphate (PNPP, 100 mM), 50 μL sodium borate buffer (25 mM at pH 9.0) and 140 μL of water. […] The color is read at 405 nm using a ELISA plate reader between 15-30 min and the absorbance is directly proportional to the amount of ALP bound to the bacteria cell adhesions for glycated groups.

S. faec. [5] = assay: as above; conditions: ALP 100 mUnits plus 15 μg of additive
Experimental: as §4, §2, §5

bacteria [6] = assay: Competitive inhibition of ALP binding to bacteria (Example 3); conditions: for binding to bacteria compared with ALP: from complete inhibition of ALP binding
Experimental: (§6) Less than 20% was no inhibition (NI) and greater than 90% was complete inhibition (CI) with a binding constant great than ALP.
(§7) Bacterial cells (1 to 4.5×10^7 cells/mL) were washed twice with water after centrifugation to separate cells into a packed pellet from the supernatant liquid. The washed cells in pellet form were suspended in 20 ul of N-2-hydroxyethyl piperazine-N′-[3-propane sulfonic acid] EPPS buffer (50 mM at pH 8.0) and 30 μL of water. Glycated protein(s) (2-40 μg) were added. In some cases a glycated protein (2-40 μg) and bovine intestinal alkaline phosphatase (ALP) (2 μg or […]) were added and the binding of the glycated protein measured by the reduction of binding of ALP.
as §2
as §5, with “borate” for “sodium tetraborate”, “9.0).” for “9.5).”, “μL” for “uL”, “min. The” for “min and the”
(§8) Only a protein binding to the cell adhesions for glycated groups causes the inhibition of the binding of ALP by bacteria. A protein binding to the cell adhesions for glycated groups provides a positive number in Table 2.

E. coli [7] = assay: Competitive inhibition of ALP binding to bacteria by added protein (Example 3, Table 2); conditions: protein 2-40 μg added with ALP 2 μg
Experimental: as §6, §7, §2
as §5, with “borate” for “sodium tetraborate”, “9.0).” for “9.5).”, “μL” for “uL”, “min. The” for “min and the”
as §8

S. faec. [8] = assay: as above; conditions: protein 2-40 μg added with ALP 2 μg
Experimental: as §6, §7, §2
as §5, with “borate” for “sodium tetraborate”, “9.0).” for “9.5).”, “μL” for “uL”, “min. The” for “min and the”
as §8

CC(N)(CO)CO [2-amino-2-methyl-1,3-propanediol]
pKa [1]: 8.6

CC(C)(N)CO [2-amino-2-methyl-1-propanol]
pKa [1]: 9.3

[Ca+2].[Cl-].[Cl-] [CaCl2]
O.D. at 405 nm, With ALP (bacteria [2]): 0.36 O.D.
O.D. at 405 nm, No ALP (bacteria [2]): 0.23 O.D.

[Co+2] [Co^+2]
effect of various cations on ALP-binding (in words) [3]: stimulate ALP-binding

[Cu+2] [Cu^2+]
effect of various cations on ALP-binding (in words) [3]: stimulate ALP-binding

O=C(O)CN(CCN(CC(=O)O)CC(=O)O)CC(=O)O [EDTA, reference compound]
ALP activity in the presence of EDTA ([3]; EDTA 10 mM): total inhibition

[Fe+2] [Fe^2+]
effect of various cations on ALP-binding (in words) [3]: stimulate ALP-binding

C[C@H](O)[C@@H](O)[C@@H](O)[C@H](O)C=O [Fucose]
absorbance (405 nm) of ALP bound to bacteria (E. coli [4]): 2.0
absorbance (405 nm) of ALP bound to bacteria (S. faec. [5]): 2.3

CC(=O)N[C@@H]1[C@@H](O)[C@@H](O)[C@@H](CO)O[C@H]1O [GalNAc, N-Acetyl-β-D-Galactosamine]
absorbance (405 nm) of ALP bound to bacteria (E. coli [4]): 1.8
absorbance (405 nm) of ALP bound to bacteria (S. faec. [5]): 1.9

CC(=O)N[C@@H]1[C@@H](O)[C@H](O)[C@@H](CO)O[C@H]1O [GlcNAc, N-Acetyl-β-D-Glucosamine]
absorbance (405 nm) of ALP bound to bacteria (E. coli [4]): 2.0
absorbance (405 nm) of ALP bound to bacteria (S. faec. [5]): 2.0

O=C[C@H](O)[C@@H](O)[C@H](O)[C@H](O)C(=O)O [Glucuronic acid]
absorbance (405 nm) of ALP bound to bacteria (E. coli [4]): 1.9
absorbance (405 nm) of ALP bound to bacteria (S. faec. [5]): 2.0

O=C[C@@H](O)[C@H](O)[C@@H](O)[C@H](O)C(=O)O [Iduronic acid]
absorbance (405 nm) of ALP bound to bacteria (E. coli [4]): 1.9
absorbance (405 nm) of ALP bound to bacteria (S. faec. [5]): 2.0

[Cl-].[Cl-].[Mg+2] [MgCl2]
O.D. at 405 nm, With ALP (bacteria [2]): 0.44 O.D.
O.D. at 405 nm, No ALP (bacteria [2]): 0.20 O.D.

C[C@@H](O[C@H]1[C@H](O)[C@@H](CO)OC(O)[C@@H]1N)C(=O)O (some centres unmarked) [Muramic Acid]
absorbance (405 nm) of ALP bound to bacteria (E. coli [4]): 1.8
absorbance (405 nm) of ALP bound to bacteria (S. faec. [5]): 2.1

CCC1(CC)C(=O)NC(=O)NC1=O [barbital]
pKa [1]: 7.44

OCCNCCO [diethanolamine]
pKa [1]: 8.7

Chondroitin sulfate A
absorbance (405 nm) of ALP bound to bacteria (E. coli [4]): 1.1
absorbance (405 nm) of ALP bound to bacteria (S. faec. [5]): 1.3

Chondroitin sulfate B
absorbance (405 nm) of ALP bound to bacteria (E. coli [4]): 0.9
absorbance (405 nm) of ALP bound to bacteria (S. faec. [5]): 0.5

Concanavalin A
absorbance (405 nm) of ALP bound to bacteria (E. coli [4]): 0.0
absorbance (405 nm) of ALP bound to bacteria (S. faec. [5]): 0.1

Hemoglobin [reference compound]
inhibition of the binding of ALP by bacteria (in words) (bacteria [6]): did not inhibit the binding of ALP
inhibition of the binding of ALP by bacteria (E. coli [7]): <20%
inhibition of the binding of ALP by bacteria (S. faec. [8]): <20%

Hyaluronic Acid
absorbance (405 nm) of ALP bound to bacteria (E. coli [4]): 1.8
absorbance (405 nm) of ALP bound to bacteria (S. faec. [5]): 2.0

Tamm-Horsfall protein (THP): glycated protein with one high-mannose and five complex or hybrid type chains
inhibition of the binding of ALP by bacteria (E. coli [7]): 40%
inhibition of the binding of ALP by bacteria (S. faec. [8]): 49%

Transferrin: glycated protein, simple carbohydrates
inhibition of the binding of ALP by bacteria (E. coli [7]): 75%
inhibition of the binding of ALP by bacteria (S. faec. [8]): 75%

polyarginine [reference compound]
inhibition of the binding of ALP by bacteria (in words) (bacteria [6]): not found to inhibit ALP activity

polyhistidine [reference compound]
inhibition of the binding of ALP by bacteria (in words) (bacteria [6]): not found to inhibit ALP activity

polylysine [reference compound]
inhibition of the binding of ALP by bacteria (in words) (bacteria [6]): not found to inhibit ALP activity

α-1-Antitrypsin: glycated protein as received from suppliers
inhibition of the binding of ALP by bacteria (E. coli [7]): 84%
inhibition of the binding of ALP by bacteria (S. faec. [8]): 74%

α-1-glycoprotein (AGP): glycated protein with five complex or hybrid type chains
binding to bacteria compared with ALP (bacteria [6]): better binders than ALP
inhibition of the binding of ALP by bacteria (E. coli [7]): 86%
inhibition of the binding of ALP by bacteria (S. faec. [8]): >90%

B1: beta-2-Glycoprotein: glycoprotein with one N-link complex type chain (protein, UniProt P02749 20-345, looked up)
Beta-2-glycoprotein 1: GRTCPKPDDLPFSTVVPLKTFYEPGEEITYSCKPGYVSRGGMRKFICPLTGLWPINTLKCTPRVCPFAGILENGAVRYTTFEYPNTISFSCNTGFYLNGADSAKCTEEGKWSPELPVCAPIICPPPSIPTFATLRVYKPSAGNNSLYRDTAVFECLPQHAMFGNDTITCTTHGNWTKLPECREVKCPFPSRPDNGFVNYPAKPTLYYKDKATFGCHDGYSLDGPEEIECTKLGNWSAMPSCKASCKVPVKKATVVYQGERVKIQEKFKNGMLHGDKVSFFCKNKEKKCSYTEDAQCIDGTIEVPKCFKEHSSLAFWKTDASDVKPC
inhibition of the binding of ALP by bacteria (E. coli [7]): 74%
inhibition of the binding of ALP by bacteria (S. faec. [8]): 61%

B2: Uristatin: urinary trypsin inhibitor lacking the O-linked glycoconjugate chain (protein, UniProt P02760 206-352, looked up)
Inter-alpha-trypsin inhibitor …: AVLPQEEEGSGGGQLVTEVTKKEDSCQLGYSAGPCMGMTSRYFYNGTSMACETFQYGGCMGNGNNFVTEKECLQTCRTVAACNLPIVRGPCRAFIQLWAFDAVKGKCVLFPYGGCQGNGNKFYSEKECREYCGVPGDGDEELLRFSN
modifications: Inter-alpha-trypsin inhibitor light chain lacks O-linked glycan chain
effect of fragmentation of the peptide chain on inhibition of ALP binding (bacteria [6]; fragmentation with protease): did not impact the inhibition
binding to bacteria compared with ALP (bacteria [6]): better binders than ALP
inhibition of the binding of ALP by bacteria (E. coli [7]): >90%
inhibition of the binding of ALP by bacteria (S. faec. [8]): >90%

B3: Bikunin: urinary trypsin inhibitor with two glycoconjugate chains and two Kunitz inhibitor domains (protein, UniProt P02760 206-352, looked up)
Inter-alpha-trypsin inhibitor …: AVLPQEEEGSGGGQLVTEVTKKEDSCQLGYSAGPCMGMTSRYFYNGTSMACETFQYGGCMGNGNNFVTEKECLQTCRTVAACNLPIVRGPCRAFIQLWAFDAVKGKCVLFPYGGCQGNGNKFYSEKECREYCGVPGDGDEELLRFSN
modifications: Inter-alpha-trypsin inhibitor light chain
binding to bacteria compared with ALP (bacteria [6]): better binders than ALP
inhibition of the binding of ALP by bacteria (E. coli [7]): >90%
inhibition of the binding of ALP by bacteria (S. faec. [8]): >90%

B4: Myoglobin: non-glycated protein as received from suppliers (protein, UniProt P02144 2-154, looked up)
Myoglobin: GLSDGEWQLVLNVWGKVEADIPGHGQEVLIRLFKGHPETLEKFDKFKHLKSEDEMKASEDLKKHGATVLTALGGILKKKGHHEAEIKPLAQSHATKHKIPVKYLEFISECIIQVLQSKHPGDFGADAQGAMNKALELFRKDMASNYKELGFQG
inhibition of the binding of ALP by bacteria (in words) (bacteria [6]): did not inhibit the binding of ALP
inhibition of the binding of ALP by bacteria (E. coli [7]): <20%
inhibition of the binding of ALP by bacteria (S. faec. [8]): <20%
